This passage reports Ki and EC50 results from ChEMBL document CHEMBL1131387, “Dimers of 5HT1 ligands preferentially bind to 5HT1B/1D receptor subtypes” (Bioorg Med Chem Lett, 1998).

Assay [1] deals with T1, 5-hydroxytryptamine receptor 1B (Homo sapiens, UniProt P28222). The assay is described as follows: Binding affinity was evaluated at human recombinant 5-hydroxytryptamine 1B receptor using [3H]5-CT as radioligand.
Assay [2] deals with T1, 5-hydroxytryptamine receptor 1B. The assay is described as follows: The intrinsic activity was evaluated for its ability to inhibit forskolin-stimulated c-AMP formation mediated by cloned 5-hydroxytryptamine 1B receptor in CHO cell line; Antagonist. It is filed as functional, cell-based.
Assay [3] has as its target 5-hydroxytryptamine receptor 1D (Homo sapiens, UniProt P28221). The assay is described as follows: Binding affinity was evaluated at human recombinant 5-hydroxytryptamine 1D receptor using [3H]-5-CT as radioligand.
In assay [4] the target is T1, 5-hydroxytryptamine receptor 1B. The assay is described as follows: The intrinsic activity was evaluated for its ability to inhibit forskolin-stimulated c-AMP formation mediated by cloned 5-hydroxytryptamine 1B receptor in CHO cell line; Partial Agonist. It counts as functional, cell-based.
Assay [5] deals with T2, 5-hydroxytryptamine receptor 1A (Homo sapiens, UniProt P08908).
T2 sequence (P08908 whole entry): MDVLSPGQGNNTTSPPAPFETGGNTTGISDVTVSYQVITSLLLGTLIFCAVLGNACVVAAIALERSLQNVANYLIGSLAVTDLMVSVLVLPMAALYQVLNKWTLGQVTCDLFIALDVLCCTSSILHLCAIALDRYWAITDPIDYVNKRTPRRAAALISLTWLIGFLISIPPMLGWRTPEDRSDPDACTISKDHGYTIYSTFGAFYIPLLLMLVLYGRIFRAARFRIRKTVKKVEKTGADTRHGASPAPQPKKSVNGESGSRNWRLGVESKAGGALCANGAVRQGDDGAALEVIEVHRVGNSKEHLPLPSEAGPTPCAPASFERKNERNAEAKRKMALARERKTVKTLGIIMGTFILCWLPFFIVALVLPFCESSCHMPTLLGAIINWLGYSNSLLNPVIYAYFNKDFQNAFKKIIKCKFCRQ
The assay is described as follows: Binding affinity was evaluated at human recombinant 5-hydroxytryptamine 1A receptor using [3H]8-OH-DPAT as radioligand.

Assay [6] has as its target T1, 5-hydroxytryptamine receptor 1B. The assay is described as follows: The intrinsic activity was evaluated for its ability to inhibit forskolin-stimulated c-AMP formation mediated by cloned 5-hydroxytryptamine 1B receptor in CHO cell line. It counts as functional, cell-based.

The structures appear in SMILES notation.

The term Ki denotes a dissociation constant, usually derived from enzyme kinetics or from competition with a known ligand. The term EC50 denotes the concentration at which the effect is half-maximal.

T1 sequence (P28222 whole entry): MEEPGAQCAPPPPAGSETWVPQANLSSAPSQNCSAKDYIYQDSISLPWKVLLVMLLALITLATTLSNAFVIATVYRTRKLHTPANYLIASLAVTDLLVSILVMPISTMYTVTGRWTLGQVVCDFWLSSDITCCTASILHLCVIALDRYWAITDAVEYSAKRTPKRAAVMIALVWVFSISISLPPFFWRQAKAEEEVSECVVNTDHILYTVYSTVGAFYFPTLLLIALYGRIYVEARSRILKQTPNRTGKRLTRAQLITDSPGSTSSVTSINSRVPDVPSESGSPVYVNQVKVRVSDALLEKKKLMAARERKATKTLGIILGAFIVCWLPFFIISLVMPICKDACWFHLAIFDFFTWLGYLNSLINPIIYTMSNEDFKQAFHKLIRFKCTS
5-hydroxytryptamine receptor 1D, sequence (P28221 whole entry): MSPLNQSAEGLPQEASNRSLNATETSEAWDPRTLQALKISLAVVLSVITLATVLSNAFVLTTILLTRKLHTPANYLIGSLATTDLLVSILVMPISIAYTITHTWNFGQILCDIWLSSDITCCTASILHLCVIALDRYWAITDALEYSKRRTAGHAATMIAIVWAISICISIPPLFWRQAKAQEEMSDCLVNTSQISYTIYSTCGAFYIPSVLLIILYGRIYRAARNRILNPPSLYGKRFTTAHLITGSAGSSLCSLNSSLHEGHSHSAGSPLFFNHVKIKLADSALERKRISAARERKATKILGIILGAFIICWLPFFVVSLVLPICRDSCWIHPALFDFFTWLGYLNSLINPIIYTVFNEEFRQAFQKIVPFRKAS

For `c1ccc2c(N3CCNCC3)cccc2c1`, the Ki in assay [1] came to 10.6 nM. In assay [2], the EC50 was greater than 10 µM.

For `CN1CCN(c2cccc3ccc(OCC(=O)Nc4ccc(NC(=O)COc5ccc6[nH]cc(CCN)c6c5)cc4)cc23)CC1`, the Ki in assay [3] was 0.5 nM; in assay [1], 0.7 nM; in assay [5] it was 5.8 nM. For the same compound, the EC50 result in assay [4] is given as “Partial agonist”.

`CN1CCN(c2cccc3ccc(OCC(=O)N4CCN(C(=O)COc5ccc6cccc(N7CCN(C)CC7)c6c5)CC4)cc23)CC1`: the results for the Ki in assay [3], in assay [1] and in assay [5] were 1.24 nM, 2.56 nM and 4 nM, respectively. In assay [4], the EC50 entry is reported as “Partial agonist”.

`CCCN(CCC)C1CCc2cccc(OCCCCCCOc3cccc4c3CC(N(CCC)CCC)CC4)c2C1` (configuration not stated) displayed an EC50 in assay [6] of 50 nM. The Ki turned out to be 3.9 nM in assay [3], 6.4 nM in assay [1] and 6.8 nM in assay [5].

On to `CN1CCN(c2cccc3ccc(OCCOc4ccc5cccc(N6CCN(C)CC6)c5c4)cc23)CC1`, for which the Ki in assay [3] was found to be 1.71 nM; in assay [1], 2.1 nM; in assay [5], 14 nM. The compound further returned an EC50 in assay [2] greater than 1 µM.

For `CN1CCN(c2cccc3ccc(OCCOc4ccc5[nH]cc(CCN)c5c4)cc23)CC1`, the Ki amounted to 0.4 nM in assay [3], 0.76 nM in assay [1] and 0.96 nM in assay [5]. Also, the EC50 entry in assay [4] is listed as “Partial agonist”.
